This note sets out measurements from patent US9643951B2, “Compound having somatostatin receptor agonistic activity and pharmaceutical use thereof” (ONO PHARMACEUTICAL CO., LTD., priority 2013, dated 2017).

Data set [1] is described as follows: Evaluation of cytotoxicity using cultured human hepatocytes (intracellular ATP). The class given is cell-based. The settings on record: read-out: IC50 of cytotoxicity (concentration at which 50% of the luminescence is suppressed). As for the experimental part: Evaluation of Cytotoxicity Using Cultured Human Hepatocytes
Frozen adhesive human hepatocytes were thawed, suspended in a hepatocellular medium (HCM) purchased from Lonza and inoculated to a 96-well plate coated with collagen. The culture medium of the hepatocytes cultured overnight in an incubator (5% carbon dioxide, 95% air, 37° C.) was exchanged to the medium containing a test compound at a concentration of 0, 12.5, 25, 50, 100, 200 or 400 (×10^−6 mol/L) and the cells were further cultured for 24 hours. Cytotoxicity was evaluated by measuring the intracellular ATP concentration. Specifically, using the Promega Celltiter-Glo luminescent assay kit available from Promega, cells were lysed in the assay buffer included in the kit and the concentration of ATP released from the cells was measured according to the luminescence resulting from luciferin-luciferase enzyme activity. The luminescence was measured on the SpectraMax plate reader from Molecular Devices. The extent of cytotoxicity of a test compound is represented by the concentration (IC50) of the compound at which 50% of the luminescence is suppressed.

Data set [2] has as its system growth hormone (GH) secretion. In words: Evaluation of suppression of growth hormone (GH) secretion using rats (GHRH-induced). The following applies: Rattus norvegicus, Procedure (B): oral administration 8 hours beforehand, read-out: percentage of suppression of GH secretion. In kind it is in vivo. As for the experimental part:
Evaluation of Suppression of Growth Hormone (GH) Secretion Using Rats
[Procedure (A): Administration of a Test Compound 30 Minutes Beforehand]
A medium (distilled water (Otsuka distilled water, Otsuka Pharmaceutical Factory, […]) IGS rats (Charles River Laboratories Japan, Inc.)) and after 27 minutes, the animals were administered with 50 mg/kg of pentobarbital sodium (Somnopentyl, Kyoritsu Seiyaku Corporation) via the tail vein for anaesthesia. Three minutes after administration of pentobarbital sodium, the rats were administered with 0.01 mg/kg of growth hormone-releasing hormone (GHRH, Bachem) via the tail vein to induce GH secretion. In order to measure the blood GH concentration, 0.2 mL of blood was collected through the jugular vein at 5 minutes after administration of GHRH. The collected blood was centrifuged at 4° C., 13,000×g for 5 minutes to obtain plasma. The blood GH concentration was measured by using Rat/Mouse Growth Hormone ELISA (Millipore) following the instruction of the kit. The percentage (%) of suppression of GH secretion was determined by using the obtained blood GH concentration and the equation {[suppression (%) of GH secretion]=([blood GH concentration of the group administered with the medium]−[blood GH concentration of the group administered with a test compound])/[blood GH concentration of the group administered with the medium]×100}. In the equation, the group administered with the medium represents the group of animals administered with the medium and the group administered with a test compound represents the group of animals administered with a test compound dissolved in the medium.
[Procedure (B): Administration of a Test Compound 8 Hours Beforehand]
A medium (distilled water (Otsuka distilled water, Otsuka Pharmaceutical Factory, […]) IGS rats (Charles River Laboratories Japan, Inc.)) and after 7 hours and 57 minutes, the animals were administered with 50 mg/kg of pentobarbital sodium (Somnopentyl, Kyoritsu Seiyaku Corporation) via the tail vein for anaesthesia. Three minutes after administration of pentobarbital sodium, the rats were administered with 0.01 mg/kg of growth hormone-releasing hormone (GHRH, Bachem) via the tail vein to induce GH secretion. The rest of the procedure is the same as in [Procedure (A)] described above.

The nature of data set [3]: Human hepatic microsome stability test. In kind it is in vitro ADME. The following applies: human hepatic microsomes 1 mg/mL; 60 minutes; test compound 0.001 mmol/L; 37° C. As for the experimental part:
Human Hepatic Microsome Stability Test
To a reaction vessel heated to 37° C. in a water bath, 0.392 mL of phosphate buffer (0.1 mol/L, pH 7.4) containing human hepatic microsomes (1 mg/mL, Xenotech) and NADPH-Co-factor (NADP+1.3 mmol/L, BD-Bioscience) was added and pre-incubated for 5 minutes. A 50% acetonitrile solution (0.008 mL) containing 0.05 mmol/L of a test compound was added thereto to initiate the enzyme reaction (final concentration of the test compound: 0.001 mmol/L). Immediately after initiation of the reaction and at 60 minutes thereafter, 0.050 mL of the reaction solution was respectively collected, which was immediately added to an acetonitrile solution (0.2 mL) containing an internal standard (45 nmol/L, 1-[3-(3,5-dimethylphenyl)-4-quinolinyl]-4-piperidineamine) to terminate the enzyme reaction.
The residual rate (%), which is indicative of stability of the test compound, was calculated using the ratio of peak areas between the test compound and the internal substance determined by LC/MS/MS (TSQ Quantum Discovery MAX, Thermo) analysis of the sample thus prepared by the above procedures followed by filtration, and the equation: {[residual rate (%)=[peak area of a test compound in a sample at 60 minutes after initiation of the reaction/peak area of the internal standard]/[peak area of the test compound in the sample immediately after initiation of the reaction/peak area of the internal standard]×100}.

Data set [4] has as its target T1, human SSTR2 (Homo sapiens, UniProt P30874).
T1 construct: Myc; expressed in transfected cells
In words: Evaluation of SSTR2 agonistic activity using cells expressing human SSTR2 (suppression of forskolin-stimulated cAMP production, SSTR2-CHO-K1). The class given is cell-based. As for the experimental part:
Evaluation of SSTR2 Agonistic Activity Using Cells Expressing Human SSTR2
(1) Isolation of Human SSTR2 Gene
Human brain cDNA was purchased from Ambion (catalogue No.: 7962; Lot No.: 040200121). PCR primers, hSSTR2_F1_XhoI: 5′-[…]-3′ (SEQ ID NO: 1) and hSSTR2_R1_EcoRI: 5′-[…]-3′ (SEQ ID NO: 2) were designed on the basis of the sequence GenBank NM_001050.
PCR reaction (95° C. for 2 min.→[98° C. for 10 sec., 60° C. for 30 sec. and 68° C. for 90 sec.]×30 cycles) was carried out using the human brain cDNA as a template and using KOD-plus-(TOYOBO Co., Ltd.). The amplified PCR product was subjected to 1% agarose gel electrophoresis, purified using QIAquick Gel Extraction Kit (QIAGEN) and digested with restriction enzymes XhoI and EcoRI. The digested fragments were ligated to an expression vector (pIRESneo-Myc) using the DNA Ligation Kit Ver. 2 (Takara) and used for transformation of E. coli DH5a. The plasmid pIRESneo-Myc/hSSTR2 was prepared and the DNA sequence thereof was confirmed.
(2) Culture of CHO-K1 Cells
CHO-K1 (−) was cultured in Ham's F-12 medium (containing foetal bovine serum (10%), penicillin (100 U/mL) and streptomycin (0.1 mg/mL)). The transduced cells were cultured in the same medium supplemented with Geneticin (1 mg/mL).
(3) Transduction of CHO-K1 Cells
CHO-K1(−) cells were transduced with the plasmid pIRESneo-Myc/hSSTR2 using Lipofectamine 2000 (Invitrogen). After 48 hours, selection was carried out by replacing the medium with the one containing 1 mg/mL of Geneticin to establish a stable overexpressing cell line (SSTR2-CHO-K1).
(4) Evaluation of SSTR2 Agonistic Activity
The human SSTR2 agonistic activity of a test compound was evaluated according to the following procedures by using a suppression activity of intracellular cyclic AMP (cAMP) production by forskolin stimulation as an index. SSTR2-CHO-K1 cells suspended in Ham's F-12 medium (containing foetal bovine serum (10%), penicillin (100 U/mL) and streptomycin (0.1 mg/mL)) supplemented with 0.25 mg/mL of Geneticin were inoculated into a 96-well plate at a density of 4.0×10^4 cells/0.1 mL per well. On the next day, the medium was removed and washed twice with 0.1 mL of wash buffer [0.1% bovine serum albumin (BSA), 20 mmol/L 4-(2-hydroxyethyl)-1-piperazineethane sulphonic acid (HEPES)-containing Hank's balanced salt solution (HBSS)]. An assay buffer [[…] 3-isobutyl-1-methylxanthine (IBMX), 0.1% BSA, 20 mmol/L HEPES-containing HBSS] was added to the wells at 0.06 mL per well and the plate was incubated for 15 minutes under the conditions of 5% carbon dioxide and 37° C. Thereafter, an assay buffer containing a test compound at a concentration twice as high as the final concentration and 0.02 mmol/L of forskolin was added to wells at 0.06 mL per well and the plate was incubated for 30 minutes under the conditions of 5% carbon dioxide and 37° C. Thereafter, the Assay/Lysis buffer included in the cAMP-Screen® kit (available from Applied Biosystems) was added to wells at 0.12 mL per well and the plate was incubated for 30 minutes under the conditions of 5% carbon dioxide and 37° C. The concentration of cAMP in samples were measured by ELISA according to the instruction of the kit.
Background: Cyclic AMP is a second messenger, typically raised through Gs and lowered through Gi signalling.

In general, EC50 refers to the concentration needed to bring the measured effect to its halfway point.

T1 sequence (P30874 whole entry): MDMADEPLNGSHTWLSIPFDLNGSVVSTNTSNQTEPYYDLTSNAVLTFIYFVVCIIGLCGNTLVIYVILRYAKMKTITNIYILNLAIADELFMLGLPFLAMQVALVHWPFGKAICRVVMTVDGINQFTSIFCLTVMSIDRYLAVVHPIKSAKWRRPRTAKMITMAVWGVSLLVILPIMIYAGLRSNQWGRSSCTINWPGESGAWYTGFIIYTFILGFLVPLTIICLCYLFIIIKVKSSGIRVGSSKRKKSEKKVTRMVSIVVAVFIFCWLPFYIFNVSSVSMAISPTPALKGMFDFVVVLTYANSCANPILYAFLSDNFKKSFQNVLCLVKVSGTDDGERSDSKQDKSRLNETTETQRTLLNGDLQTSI

As to `NC1CCN(c2c(-c3ccc(OC(F)F)cc3)cncc2-c2cc(Cl)cc(Cl)c2)CC1` [Example 2(3), 1-{3-(3,5-dichlorophenyl)-5-[4-(difluoromethoxy)phenyl]-4-pyridinyl}-4-piperidineamine], in data set [1], the IC50 at 24 h stood at 9 µM. Besides, the inhibition in vivo at 1 mg/kg in data set [2] was 88%. This compound also displayed a residual rate in data set [3] of 96.4%. For the same compound, in data set [4], the EC50 came out at 0.021 nM.

For the compound `C/C(=C\c1cncc(-c2cc(Cl)cc(Cl)c2)c1N1CCC(N)CC1)c1cccc(C#N)c1` [Example 4, 3-{(1E)-1-[4-(4-amino-1-piperidinyl)-5-(3,5-dichlorophenyl)-3-pyridinyl]-1-propen-2-yl}benzonitrile], the IC50 at 24 h in data set [1] stood at 17 µM. In addition, in data set [2], the inhibition in vivo at 1 mg/kg turned out to be 84%. Further, in data set [3], the residual rate amounted to 100.0%. This compound also showed an EC50 in data set [4] of 0.034 nM.

`COc1ccc(F)cc1C(=O)Nc1cncc(-c2cc(Cl)cc(Cl)c2)c1N1CCC(N)CC1` [Example 7(1), N-[4-(4-amino-1-piperidinyl)-5-(3,5-dichlorophenyl)-3-pyridinyl]-5-fluoro-2-methoxybenzamide]: in data set [1], the IC50 at 24 h is 34 µM. In data set [2] (3 mg/kg), the inhibition in vivo at 3 mg/kg was determined as 88%. The residual rate in data set [3] came out at 92.9%. For the same compound, the concentration giving a half-maximal response (EC50) in data set [4] stood at 0.26 nM.

With `CCNC1CCN(c2c(/C=C(\C)c3cccc(C#N)c3)cncc2-c2cc(Cl)cc(Cl)c2)CC1` [Example 5, 3-[(1E)-1-{5-(3,5-dichlorophenyl)-4-[4-(ethylamino)-1-piperidinyl]-3-pyridinyl}-1-propen-2-yl]benzonitrile], the IC50 at 24 h in data set [1] was 18 µM. For the same compound, the inhibition in vivo at 1 mg/kg in data set [2] turned out to be 90%. In addition, the residual rate in data set [3] is recorded as 79.7%. Moreover, a half-maximal response in data set [4] (EC50) required 0.047 nM.

Consider `N#CC1(c2ccc(-c3cncc(-c4cc(Cl)cc(Cl)c4)c3N3CCC(N)CC3)cc2)CC1` [Example 2(2), 1-{4-[4-(4-amino-1-piperidinyl)-5-(3,5-dichlorophenyl)-3-pyridinyl]phenyl}cyclopropanecarbonitrile], for which the IC50 at 24 h in data set [1] amounted to 11 µM. The inhibition in vivo at 1 mg/kg in data set [2] is 93%. Further, in data set [3], the residual rate is 100.0%. The compound also came in with a 50% effective concentration (EC50) in data set [4] of 0.013 nM.

In the case of `CCNC1CCN(c2c(-c3ccc(OC(F)F)cc3)cncc2-c2cc(Cl)cc(Cl)c2)CC1` [Example 5(3), 1-{3-(3,5-dichlorophenyl)-5-[4-(difluoromethoxy)phenyl]-4-pyridinyl}-N-ethyl-4-piperidineamine], the IC50 at 24 h in data set [1] amounted to 10 µM. For the same compound, the inhibition in vivo at 1 mg/kg in data set [2] worked out at 96%. The residual rate in data set [3] is given as 67.7%. The EC50 in data set [4] came to 0.028 nM.

With `NC1CCN(c2c(/C=C/c3cccc(Cl)c3)cncc2-c2cc(F)cc(Cl)c2)CC1` [Example 3(1), 1-{3-(3-chloro-5-fluorophenyl)-5-[(E)-2-(3-chlorophenyl)vinyl]-4-pyridinyl}-4-piperidineamine], in data set [1], the IC50 at 24 h was 19 µM. For the same compound, the inhibition in vivo at 1 mg/kg in data set [2] was determined as 86%. Moreover, the residual rate in data set [3] worked out at 50.3%. For the same compound, in data set [4], the EC50 was found to be 0.11 nM.

With `NC1CCN(c2c(-c3ccc(C(F)(F)F)cc3)cncc2-c2cc(F)cc(Cl)c2)CC1` [Example 2, 1-{3-(3-chloro-5-fluorophenyl)-5-[4-(trifluoromethyl)phenyl]-4-pyridinyl}-4-piperidineamine], the IC50 at 24 h in data set [1] stood at 10 µM. The inhibition in vivo at 1 mg/kg in data set [2] was determined as 93%. The residual rate in data set [3] came to 88.0%. In addition, in data set [4], the concentration for a half-maximal effect (EC50) worked out at 0.083 nM.

As to `C/C(=C\c1cncc(-c2cc(Cl)cc(Cl)c2)c1N1CCC(N)CC1)c1cccc(F)c1` [Example 3, 1-{3-(3,5-dichlorophenyl)-5-[(1E)-2-(3-fluorophenyl)-1-propen-1-yl]-4-pyridinyl}-4-piperidineamine], the IC50 at 24 h in data set [1] was determined as 36 µM. Also, the inhibition in vivo at 1 mg/kg in data set [2] turned out to be 88%. In data set [3], this compound displayed a residual rate of 85.2%. In data set [4], this compound registered a concentration giving a half-maximal response (EC50) of 0.04 nM.

As to `CCNC1CCN(c2c(-c3ccc(C(F)(F)F)cc3)cncc2-c2cc(Cl)cc(Cl)c2)CC1` [Example 5(1), 1-{3-(3,5-dichlorophenyl)-5-[4-(trifluoromethyl)phenyl]-4-pyridinyl}-N-ethyl-4-piperidineamine], the IC50 at 24 h in data set [1] was found to be 18 µM. Moreover, the inhibition in vivo at 1 mg/kg in data set [2] stood at 90%. For the same compound, the residual rate in data set [3] came out at 57.6%. In data set [4], this compound returned an EC50 of 0.045 nM.
